Drawing on ChEMBL document CHEMBL3714742, “Pyrimido (4,5-b) indole derivatives” (2003), this text covers inhibition and IC50 for 15 molecules.

Experiment [1] relates to Mus musculus. The experiment can be described thus: Inhibition of anti-CD3 antibody-induced IFNgamma production in Balb/c mouse dosed intravenously 5 mins before anti-CD3 antibody injection and measured 2 hrs post-challenge by ELISA. The experiment is classed as functional, organism-based. On the technique in general: In an ELISA, binding on a coated surface is turned into a signal by an enzyme label.

Experiment [2] relates to Mus musculus. In words: Inhibition of anti-CD3 antibody-induced IL4 production in Balb/c mouse dosed intravenously 5 mins before anti-CD3 antibody injection and measured 2 hrs post-challenge by ELISA. Format: functional, organism-based.
Experiment [3] addresses T1, Dual specificity mitogen-activated protein kinase kinase 7 (Homo sapiens, UniProt O14733).
T1 sequence (O14733 whole entry): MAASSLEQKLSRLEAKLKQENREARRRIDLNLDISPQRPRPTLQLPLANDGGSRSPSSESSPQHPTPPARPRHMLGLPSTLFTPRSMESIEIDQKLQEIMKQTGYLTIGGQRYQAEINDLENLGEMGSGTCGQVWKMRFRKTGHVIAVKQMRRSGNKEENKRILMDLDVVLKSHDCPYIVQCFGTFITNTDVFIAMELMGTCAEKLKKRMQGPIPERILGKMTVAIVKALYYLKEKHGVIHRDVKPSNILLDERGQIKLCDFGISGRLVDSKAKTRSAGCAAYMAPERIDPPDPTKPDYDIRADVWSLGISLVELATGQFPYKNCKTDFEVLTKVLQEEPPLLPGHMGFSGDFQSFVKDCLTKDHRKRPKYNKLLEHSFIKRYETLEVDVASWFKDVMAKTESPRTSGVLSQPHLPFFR
In words: Inhibition of GST-tagged human MKK7 expressed in Escherichia coli (BL21(DE3) pLysS) co-expressing human MEKK catalytic domain using biotinylated and GST-tagged rat GST-KN-SAPKalpha substrate incubated for 1 hr by time-resolved fluorescence based assay.

For experiment [4], the system named is Mus musculus. The experiment can be described thus: Inhibition of anti-CD3 antibody-induced IL2 production in Balb/c mouse dosed intravenously 5 mins before anti-CD3 antibody injection and measured 2 hrs post-challenge by ELISA. The experiment is classed as functional, organism-based.

Active and inactive are the calls of the source. The rule behind the calls is not given here. Some results are limits rather than exact numbers.

In the case of `Nc1nc(N2CCCCC2)c2c(n1)[nH]c1ccc(C(=O)O)cc12`, the inhibition result with Mus musculus [1], in the experiment with Mus musculus [2] and with Mus musculus [4] was “Active” throughout. In experiment [3], the 50% inhibitory concentration (IC50) is less than 1 µM.

As for `Nc1nc(NCc2ccccc2)c2c(n1)[nH]c1ccc(O)cc12`, the inhibition entry with Mus musculus [1], in the experiment on Mus musculus [2] and in the experiment with Mus musculus [4] was “Active” each time. Besides, the IC50 in experiment [3] is less than 1 µM.

With `OCCN(CCO)c1ncnc2[nH]c3ccc(O)cc3c12`, the inhibition entry in the experiment on Mus musculus [1], in the experiment on Mus musculus [2] and in the experiment on Mus musculus [4] was “Active” throughout. Besides, the 50% inhibitory concentration (IC50) in experiment [3] was less than 1 µM.

With `OCCC1CCCN(c2ncnc3[nH]c4ccc(O)cc4c23)C1` (stereo not given), the inhibition entry in the experiment with Mus musculus [1], in the experiment with Mus musculus [2] and with Mus musculus [4] was “Active” in each case. Further, the half-maximal inhibitory concentration (IC50) in experiment [3] is less than 1 µM.

For the molecule `CC(C)(C)OC(=O)N1CCC(Nc2ncnc3[nH]c4ccc(O)cc4c23)CC1`, the inhibition entry in the experiment on Mus musculus [1], in the experiment with Mus musculus [2] and in the experiment on Mus musculus [4] was “Active” in each case. This molecule gave an IC50 in experiment [3] of less than 1 µM.

Take `CCC1CCCCN1c1ncnc2[nH]c3ccc(O)cc3c12` (stereo not given): the inhibition result with Mus musculus [1], with Mus musculus [2] and in the experiment on Mus musculus [4] was “Active” each time. Besides, the 50% inhibitory concentration (IC50) in experiment [3] is less than 1 µM.

For the molecule `CC(C)(C)OC(=O)NC1CCN(c2ncnc3[nH]c4ccc(O)cc4c23)CC1`, the inhibition entry with Mus musculus [1], in the experiment with Mus musculus [2] and in the experiment on Mus musculus [4] was “Active” throughout. For the same molecule, the IC50 in experiment [3] was less than 1 µM.

For `Nc1nc(N2CCC(C(=O)O)CC2)c2c(n1)[nH]c1ccc(O)cc12`, the inhibition result with Mus musculus [1], in the experiment with Mus musculus [2] and in the experiment on Mus musculus [4] was “Active” throughout. The molecule also registered an IC50 in experiment [3] of 1 µM.

On to `Nc1nc(N(Cc2ccccc2)Cc2ccccc2)c2c(n1)[nH]c1ccc(O)cc12`, for which the inhibition result in the experiment with Mus musculus [1], with Mus musculus [2] and with Mus musculus [4] was “Active” in each case. In experiment [3], this molecule showed a concentration for half-maximal inhibition (IC50) of more than 10 µM.

Regarding `CC1CCN(c2nc(N)nc3[nH]c4ccc(O)cc4c23)CC1`, the inhibition entry with Mus musculus [1], in the experiment with Mus musculus [2] and in the experiment on Mus musculus [4] was “Active” throughout. Besides, the IC50 in experiment [3] is less than 1 µM.

For `CC1CC(C)CN(c2ncnc3[nH]c4ccc(C(N)=O)cc4c23)C1` (stereo not given), the inhibition result with Mus musculus [1], in the experiment with Mus musculus [2] and with Mus musculus [4] was “Active” throughout. The molecule also returned an IC50 in experiment [3] of less than 1 µM.

As for `NC(=O)c1ccc2[nH]c3ncnc(N4CCC(C(=O)O)CC4)c3c2c1`, the inhibition entry with Mus musculus [1], in the experiment on Mus musculus [2] and in the experiment on Mus musculus [4] was “Active” each time. In experiment [3], the concentration for half-maximal inhibition (IC50) was less than 1 µM.

With `NC(=O)c1ccc2[nH]c3ncnc(NC4CCCCC4)c3c2c1`, the inhibition entry in the experiment with Mus musculus [1], in the experiment with Mus musculus [2] and with Mus musculus [4] was “Active” throughout. Besides, in experiment [3], the IC50 is less than 1 µM.

As for `NC(=O)c1ccc2[nH]c3ncnc(N4CCC(N)C4)c3c2c1` (stereo not given), the inhibition result with Mus musculus [1], with Mus musculus [2] and in the experiment on Mus musculus [4] was “Active” in each case. The molecule also came in with an IC50 in experiment [3] of less than 1 µM.

As for `Cc1ccc2[nH]c3nc(N)nc(N4CCCCC4)c3c2c1`, the inhibition result with Mus musculus [1], with Mus musculus [2] and in the experiment with Mus musculus [4] was “Active” each time. The molecule further displayed a half-maximal inhibitory concentration (IC50) in experiment [3] of less than 1 µM.

For orientation: IC50 means the concentration at which inhibition is half-maximal. High values mean lower potency, low ones higher potency.
